Laboratory results: ChEMBL document CHEMBL1121950, “Species- or isozyme-specific enzyme inhibitors. 9. Selective effects in inhibitions of rat pyruvate kinase isozymes by adenosine 5'-diphosphate derivatives” (J Med Chem, 1982)
Values joined by “and” are separate entries in the source; they are usually repeats but may differ in a detail not shown here. Equal values may be shown once.

Legend:
Pyruvate kinase PKLR [1] = target: T1, Pyruvate kinase PKLR (Rattus norvegicus, UniProt P12928); test: Inhibitory constant for inhibition of pyruvate kinase obtained from rat liver (PK-L) was determined using ADP as competitive inhibitor
T1 sequence (P12928 whole entry): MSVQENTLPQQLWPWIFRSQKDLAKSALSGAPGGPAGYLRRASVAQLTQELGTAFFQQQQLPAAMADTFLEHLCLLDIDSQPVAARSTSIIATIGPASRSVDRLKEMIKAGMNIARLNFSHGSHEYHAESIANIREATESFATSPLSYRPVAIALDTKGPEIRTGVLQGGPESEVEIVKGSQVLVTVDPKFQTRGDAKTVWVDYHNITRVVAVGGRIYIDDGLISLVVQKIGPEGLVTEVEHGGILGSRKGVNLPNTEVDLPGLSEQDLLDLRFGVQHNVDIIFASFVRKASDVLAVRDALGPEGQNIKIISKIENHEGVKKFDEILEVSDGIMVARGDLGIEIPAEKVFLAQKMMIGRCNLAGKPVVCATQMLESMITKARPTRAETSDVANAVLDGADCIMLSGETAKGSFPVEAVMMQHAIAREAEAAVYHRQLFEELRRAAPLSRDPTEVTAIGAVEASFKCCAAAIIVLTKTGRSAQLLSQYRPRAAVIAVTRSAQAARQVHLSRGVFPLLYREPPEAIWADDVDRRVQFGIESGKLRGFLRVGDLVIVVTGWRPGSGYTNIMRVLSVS

Pyruvate kinase PKM [2] = target: T2, Pyruvate kinase PKM (Rattus norvegicus, UniProt P11980); test: Inhibition of rat muscle pyruvate kinase (PK-M)
T2 sequence (P11980 whole entry): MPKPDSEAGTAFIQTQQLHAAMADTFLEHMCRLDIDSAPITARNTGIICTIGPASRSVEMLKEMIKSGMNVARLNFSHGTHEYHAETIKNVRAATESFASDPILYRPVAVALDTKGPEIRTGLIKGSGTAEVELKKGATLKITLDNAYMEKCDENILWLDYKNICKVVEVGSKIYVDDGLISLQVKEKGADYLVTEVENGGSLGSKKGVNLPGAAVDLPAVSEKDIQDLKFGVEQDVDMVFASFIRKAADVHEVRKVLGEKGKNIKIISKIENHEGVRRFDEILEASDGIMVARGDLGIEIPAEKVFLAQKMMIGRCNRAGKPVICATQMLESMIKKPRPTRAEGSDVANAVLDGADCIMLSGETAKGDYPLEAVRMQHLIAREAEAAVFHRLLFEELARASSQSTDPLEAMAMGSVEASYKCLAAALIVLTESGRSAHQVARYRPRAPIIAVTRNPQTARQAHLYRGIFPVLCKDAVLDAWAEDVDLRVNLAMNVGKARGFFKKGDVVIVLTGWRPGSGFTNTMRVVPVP

Pyruvate kinase PKLR [3] = target: T1, Pyruvate kinase PKLR; test: Inhibition of rat liver pyruvate kinase (PK-L) at 7.2 mM
Pyruvate kinase PKLR [4] = target: T1, Pyruvate kinase PKLR; test: Inhibition of rat liver pyruvate kinase (PK-L) at 3.6 mM
Pyruvate kinase PKLR [5] = target: T1, Pyruvate kinase PKLR; test: Inhibition of rat kidney pyruvate kinase (PK-L)
Pyruvate kinase PKLR [6] = target: T1, Pyruvate kinase PKLR; test: Inhibition of rat liver pyruvate kinase (PK-L); (relative inhibitory potency)
Pyruvate kinase PKM [7] = target: T2, Pyruvate kinase PKM; test: Inhibition of rat muscle pyruvate kinase (PK-M) at 10 mM
Pyruvate kinase PKM [8] = target: T2, Pyruvate kinase PKM; test: Inhibition of rat muscle pyruvate kinase (PK-M) at 6.7 mM
Pyruvate kinase PKLR [9] = target: T1, Pyruvate kinase PKLR; test: Inhibition of rat liver pyruvate kinase (PK-L) at 10.7 mM

Ki (Pyruvate kinase PKLR [1])	Ki (Pyruvate kinase PKM [2])	SMILES	further results
32 mM	9.3 mM	CO[C@H]1[C@@H](O)[C@H](n2cnc3c(N)ncnc32)O[C@@H]1COP(=O)(O)OP(=O)(O)O	–
–	1.6 mM	CC1O[C@@H]2[C@H](O1)[C@@H](COP(=O)(O)OP(=O)(O)O)O[C@H]2n1cnc2c(N)ncnc21 (some centres not stated)	Ki (Pyruvate kinase PKLR [3]): 2.2 mM; Ki (Pyruvate kinase PKLR [4]): 4.6 mM
–	0.9 mM	CCCNc1nc2c(N)ncnc2n1C1O[C@H](COP(=O)(O)OP(=O)(O)O)[C@@H](O)[C@H]1O (some centres not stated)	Ki (Pyruvate kinase PKLR [5]): 1.6 mM; Ki (Pyruvate kinase PKLR [6]): 3.8 mM
7.5 mM	4.3 mM	CSc1nc2c(N)ncnc2n1C1O[C@H](COP(=O)(O)OP(=O)(O)O)[C@@H](O)[C@H]1O (some centres not stated)	–
–	–	C[C@@H](OP(=O)(O)OP(=O)(O)O)[C@H]1OC(n2cnc3c(N)ncnc32)[C@H](O)[C@@H]1O (some centres not stated)	Ki (Pyruvate kinase PKM [7]): 4.5 mM; Ki (Pyruvate kinase PKM [8]): 7 mM; Ki (Pyruvate kinase PKLR [9]): 5.4 mM
2.2 mM and 3.9 mM	0.5 mM and 0.87 mM	CCNc1nc2c(N)ncnc2n1C1O[C@H](COP(=O)(O)OP(=O)(O)O)[C@@H](O)[C@H]1O (some centres not stated)	–
8.4 mM	3.7 mM	CCSc1nc2c(N)ncnc2n1C1O[C@H](COP(=O)(O)OP(=O)(O)O)[C@@H](O)[C@H]1O (some centres not stated)	–
